Laboratory results published in PubChem BioAssay AID2060487 (Molecular Pharmacology Branch, DTP, NCI, 2025).
“And” between values parts separate entries of the source, which are not always exact repeats. Identical values can stand only once.

Tested on: 997537-175-T-J1-PDC complex spheroid viability
Experiment: Anticancer human tumor 997537-175-T-J1-PDC patient-derived colon adenocarcinoma cell line growth inhibition [GQUAD]
Conditions: for viability, T/C: stronger effect = lower value
Summary of the method: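 Tumor cells were grown as complex spheroids with HUVEC endothelial cells and mesenchymal stem cells as stroma. G-quadruplex stabilizers were combined with targeted agents over half-log dilutions from near the clinical Cmax, or from 10 microM.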
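Note: spheroids exposed to the agents for 7 days.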
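Throughout, for viability, T/C: 100% = DMSO vehicle control viability.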

CC[C@@]1(O)C(=O)OCc2c1cc1n(c2=O)Cc2cc3c(CN(C)C)c(O)ccc3nc2-1 + CN(C)c1ccc(Nc2c3ccc(NC(=O)CCN4CCCC4)cc3nc3cc(NC(=O)CCN4CCCC4)ccc23)cc1
IC50 (curve of first compound, second compound 0.0316 µM): > 316 nM
IC50 (curve of first compound, second compound 0.1 µM): > 316 nM
IC50 (curve of first compound, second compound 0.316 µM): > 316 nM
IC50 (curve of first compound, second compound 1 µM): > 316 nM
IC50 (curve of first compound, second compound 3.16 µM): > 316 nM
IC50 (curve of first compound, second compound 10 µM): > 316 nM
viability, T/C (second compound 0.0316 µM, first compound 0.000999 µM): 90%
viability, T/C (second compound 0.0316 µM, first compound 0.00316 µM): 84.8%
viability, T/C (second compound 0.0316 µM, first compound 0.00999 µM): 86.4%
viability, T/C (second compound 0.0316 µM, first compound 0.0316 µM): 61.1%
viability, T/C (second compound 0.0316 µM, first compound 0.0999 µM): 82.5%
viability, T/C (second compound 0.0316 µM, first compound 0.316 µM): 64.2%
viability, T/C (second compound 0.1 µM, first compound 0.000999 µM): 99%
viability, T/C (second compound 0.1 µM, first compound 0.00316 µM): 103%
viability, T/C (second compound 0.1 µM, first compound 0.00999 µM): 92.3%
viability, T/C (second compound 0.1 µM, first compound 0.0316 µM): 86.2%
viability, T/C (second compound 0.1 µM, first compound 0.0999 µM): 76.8%
viability, T/C (second compound 0.1 µM, first compound 0.316 µM): 63.3%
viability, T/C (second compound 0.316 µM, first compound 0.000999 µM): 82.3%
viability, T/C (second compound 0.316 µM, first compound 0.00316 µM): 81.9%
viability, T/C (second compound 0.316 µM, first compound 0.00999 µM): 87.3%
viability, T/C (second compound 0.316 µM, first compound 0.0316 µM): 97.8%
viability, T/C (second compound 0.316 µM, first compound 0.0999 µM): 91.5%
viability, T/C (second compound 0.316 µM, first compound 0.316 µM): 69.3%
viability, T/C (second compound 1 µM, first compound 0.000999 µM): 79.3%
viability, T/C (second compound 1 µM, first compound 0.00316 µM): 91.1%
viability, T/C (second compound 1 µM, first compound 0.00999 µM): 108%
viability, T/C (second compound 1 µM, first compound 0.0316 µM): 90.6%
viability, T/C (second compound 1 µM, first compound 0.0999 µM): 96.9%
viability, T/C (second compound 1 µM, first compound 0.316 µM): 68.9%
viability, T/C (second compound 3.16 µM, first compound 0.000999 µM): 63.8%
viability, T/C (second compound 3.16 µM, first compound 0.00316 µM): 79.7%
viability, T/C (second compound 3.16 µM, first compound 0.00999 µM): 90.4%
viability, T/C (second compound 3.16 µM, first compound 0.0316 µM): 86.4%
viability, T/C (second compound 3.16 µM, first compound 0.0999 µM): 95.2%
viability, T/C (second compound 3.16 µM, first compound 0.316 µM): 65.9%
viability, T/C (second compound 10 µM, first compound 0.000999 µM): 86.3%
viability, T/C (second compound 10 µM, first compound 0.00316 µM): 88.6%
viability, T/C (second compound 10 µM, first compound 0.00999 µM): 98.7%
viability, T/C (second compound 10 µM, first compound 0.0316 µM): 103%
viability, T/C (second compound 10 µM, first compound 0.0999 µM): 99.6%
viability, T/C (second compound 10 µM, first compound 0.316 µM): 73.3%

O=c1[nH]cc(F)c(=O)[nH]1
viability, T/C (compound 0.0316 µM): 108% and 85.2% and 99.8%
viability, T/C (compound 0.1 µM): 104% and 108% and 86.2%
viability, T/C (compound 0.316 µM): 96.1% and 89% and 98.1%
viability, T/C (compound 1 µM): 95.1% and 85.5% and 92.2%
viability, T/C (compound 3.16 µM): 101% and 70.3% and 82.5%
viability, T/C (compound 10 µM): 83.9% and 87.2% and 93.6%
IC50 (curve of compound): > 10000 nM
